Reference: ChEMBL document CHEMBL5465560, “Selectivity Literature for EUbOPEN Chemogenomic Library” (2024)

Assays:
[1] = target: Death-associated protein kinase 2 (Homo sapiens) (UniProt Q9UIK4); test: Selectivity interaction (KinomeScan (DiscoverX)) EUB0000655a DAPK2; conditions: at 10 µM
[2] = target: Casein kinase I isoform delta (Homo sapiens, UniProt P48730); test: Selectivity interaction (KinomeScan (DiscoverX)) EUB0000666a CSNK1D; conditions: at 10 µM
[3] = target: Serine/threonine-protein kinase MRCK alpha (Homo sapiens) (UniProt Q5VT25); conditions: at 10 µM
Serine/threonine-protein kinase MRCK alpha (Homo sapiens), sequence (Q5VT25 whole entry): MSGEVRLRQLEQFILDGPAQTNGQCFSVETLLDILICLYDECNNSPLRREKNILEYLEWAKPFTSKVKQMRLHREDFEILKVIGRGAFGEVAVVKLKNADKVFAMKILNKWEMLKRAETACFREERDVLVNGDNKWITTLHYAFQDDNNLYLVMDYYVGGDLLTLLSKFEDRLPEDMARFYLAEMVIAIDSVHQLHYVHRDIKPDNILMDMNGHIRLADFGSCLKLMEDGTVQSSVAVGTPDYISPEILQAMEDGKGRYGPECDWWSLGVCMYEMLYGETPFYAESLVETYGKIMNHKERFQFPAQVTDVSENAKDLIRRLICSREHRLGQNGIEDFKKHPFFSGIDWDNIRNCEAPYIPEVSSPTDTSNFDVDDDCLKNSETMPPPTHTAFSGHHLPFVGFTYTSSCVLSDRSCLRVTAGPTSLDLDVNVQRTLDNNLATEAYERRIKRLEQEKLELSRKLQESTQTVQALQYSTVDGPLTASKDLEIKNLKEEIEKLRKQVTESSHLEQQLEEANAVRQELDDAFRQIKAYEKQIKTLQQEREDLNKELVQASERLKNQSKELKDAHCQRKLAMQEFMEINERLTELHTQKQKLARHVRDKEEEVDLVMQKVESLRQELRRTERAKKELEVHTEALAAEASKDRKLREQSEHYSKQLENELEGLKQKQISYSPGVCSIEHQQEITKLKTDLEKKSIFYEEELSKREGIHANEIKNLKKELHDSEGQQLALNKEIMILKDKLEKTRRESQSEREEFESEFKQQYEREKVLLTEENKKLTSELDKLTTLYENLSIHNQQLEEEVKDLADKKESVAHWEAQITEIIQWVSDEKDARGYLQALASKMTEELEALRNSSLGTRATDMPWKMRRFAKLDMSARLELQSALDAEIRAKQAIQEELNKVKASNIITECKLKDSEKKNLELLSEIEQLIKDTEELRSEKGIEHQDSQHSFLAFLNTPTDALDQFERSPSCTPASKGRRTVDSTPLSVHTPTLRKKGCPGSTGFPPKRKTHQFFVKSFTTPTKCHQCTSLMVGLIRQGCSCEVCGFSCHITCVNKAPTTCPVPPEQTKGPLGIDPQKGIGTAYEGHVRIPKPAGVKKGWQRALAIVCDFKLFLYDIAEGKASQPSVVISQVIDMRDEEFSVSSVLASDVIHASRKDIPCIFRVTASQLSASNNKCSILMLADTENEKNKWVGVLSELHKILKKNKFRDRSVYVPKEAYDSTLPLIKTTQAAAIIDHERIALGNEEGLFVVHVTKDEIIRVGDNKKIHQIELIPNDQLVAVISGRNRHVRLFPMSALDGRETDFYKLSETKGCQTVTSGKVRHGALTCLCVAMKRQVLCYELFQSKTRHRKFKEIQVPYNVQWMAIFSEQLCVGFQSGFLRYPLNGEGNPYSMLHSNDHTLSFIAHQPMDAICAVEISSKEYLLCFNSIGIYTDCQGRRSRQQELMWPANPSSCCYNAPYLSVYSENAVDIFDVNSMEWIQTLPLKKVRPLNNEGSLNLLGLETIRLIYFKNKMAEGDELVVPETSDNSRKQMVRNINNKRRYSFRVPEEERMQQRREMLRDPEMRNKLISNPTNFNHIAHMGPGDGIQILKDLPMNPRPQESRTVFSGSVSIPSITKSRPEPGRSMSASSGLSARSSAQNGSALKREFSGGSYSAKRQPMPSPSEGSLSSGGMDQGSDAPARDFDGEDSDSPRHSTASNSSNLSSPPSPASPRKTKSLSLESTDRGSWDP

[4] = target: CDK18/Cyclin Y (Homo sapiens) (UniProt Q07002+Q8ND76); test: Selectivity interaction (Kinase panel (Z-LYTE Assay)) EUB0001632a CDK18; type: protein-complex assay; conditions: at 10 µM
[5] = target: Mitogen-activated protein kinase 9 (Homo sapiens, UniProt P45984); conditions: at 10 µM
Mitogen-activated protein kinase 9, sequence (P45984 whole entry, looked up): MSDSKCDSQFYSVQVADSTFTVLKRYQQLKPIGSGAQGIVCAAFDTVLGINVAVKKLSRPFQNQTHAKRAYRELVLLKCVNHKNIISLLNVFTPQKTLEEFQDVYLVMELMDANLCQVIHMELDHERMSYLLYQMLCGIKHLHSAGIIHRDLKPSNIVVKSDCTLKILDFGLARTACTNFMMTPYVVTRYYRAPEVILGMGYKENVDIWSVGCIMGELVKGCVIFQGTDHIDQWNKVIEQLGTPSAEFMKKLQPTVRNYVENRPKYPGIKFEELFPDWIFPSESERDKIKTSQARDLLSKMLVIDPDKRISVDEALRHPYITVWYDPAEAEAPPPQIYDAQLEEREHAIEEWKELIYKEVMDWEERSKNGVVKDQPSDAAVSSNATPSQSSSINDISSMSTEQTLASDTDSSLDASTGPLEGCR

[6] = target: T1, Mitogen-activated protein kinase kinase kinase 5 (Homo sapiens) (UniProt Q99683); test: Selectivity interaction (KinomeScan (DiscoverX)) EUB0000045b MAP3K5
T1 sequence (whole entry): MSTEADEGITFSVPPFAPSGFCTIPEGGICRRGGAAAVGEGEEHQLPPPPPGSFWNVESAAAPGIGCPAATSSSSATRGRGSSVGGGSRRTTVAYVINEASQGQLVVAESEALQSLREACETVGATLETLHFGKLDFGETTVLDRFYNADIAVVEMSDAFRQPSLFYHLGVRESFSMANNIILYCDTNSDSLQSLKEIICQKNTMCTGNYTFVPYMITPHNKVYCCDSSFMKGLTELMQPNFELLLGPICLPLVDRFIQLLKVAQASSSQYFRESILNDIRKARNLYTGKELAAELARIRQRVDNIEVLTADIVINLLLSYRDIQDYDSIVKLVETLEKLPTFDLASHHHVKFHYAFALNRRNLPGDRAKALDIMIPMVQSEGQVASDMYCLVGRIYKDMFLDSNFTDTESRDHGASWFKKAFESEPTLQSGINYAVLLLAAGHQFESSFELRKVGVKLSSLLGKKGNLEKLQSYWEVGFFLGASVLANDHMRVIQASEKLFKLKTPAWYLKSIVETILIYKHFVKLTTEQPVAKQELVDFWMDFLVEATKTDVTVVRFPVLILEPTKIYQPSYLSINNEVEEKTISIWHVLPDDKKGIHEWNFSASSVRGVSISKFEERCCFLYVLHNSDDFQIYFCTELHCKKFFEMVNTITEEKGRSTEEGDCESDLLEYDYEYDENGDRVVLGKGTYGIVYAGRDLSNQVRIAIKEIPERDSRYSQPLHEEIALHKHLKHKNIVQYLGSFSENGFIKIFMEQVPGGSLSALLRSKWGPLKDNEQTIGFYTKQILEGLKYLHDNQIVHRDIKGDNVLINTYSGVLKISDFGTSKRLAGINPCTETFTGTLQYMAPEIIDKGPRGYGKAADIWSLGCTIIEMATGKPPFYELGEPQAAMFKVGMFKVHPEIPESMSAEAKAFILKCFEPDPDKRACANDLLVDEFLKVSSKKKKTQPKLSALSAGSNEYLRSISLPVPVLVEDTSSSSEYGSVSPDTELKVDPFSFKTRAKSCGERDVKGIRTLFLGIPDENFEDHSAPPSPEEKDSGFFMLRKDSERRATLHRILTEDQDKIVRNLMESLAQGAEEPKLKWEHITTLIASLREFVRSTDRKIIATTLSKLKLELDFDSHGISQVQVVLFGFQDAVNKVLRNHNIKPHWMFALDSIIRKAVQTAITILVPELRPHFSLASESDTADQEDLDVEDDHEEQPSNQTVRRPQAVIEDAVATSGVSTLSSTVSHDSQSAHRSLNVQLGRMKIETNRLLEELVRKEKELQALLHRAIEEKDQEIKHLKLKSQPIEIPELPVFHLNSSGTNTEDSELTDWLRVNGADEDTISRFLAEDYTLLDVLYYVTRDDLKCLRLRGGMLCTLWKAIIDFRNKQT

[7] = target: T2, Serine/threonine-protein kinase Nek11 (Homo sapiens) (UniProt Q8NG66); test: Selectivity interaction (KinomeScan (DiscoverX)) EUB0001619a NEK11; conditions: at 1 µM
T2 sequence (whole entry): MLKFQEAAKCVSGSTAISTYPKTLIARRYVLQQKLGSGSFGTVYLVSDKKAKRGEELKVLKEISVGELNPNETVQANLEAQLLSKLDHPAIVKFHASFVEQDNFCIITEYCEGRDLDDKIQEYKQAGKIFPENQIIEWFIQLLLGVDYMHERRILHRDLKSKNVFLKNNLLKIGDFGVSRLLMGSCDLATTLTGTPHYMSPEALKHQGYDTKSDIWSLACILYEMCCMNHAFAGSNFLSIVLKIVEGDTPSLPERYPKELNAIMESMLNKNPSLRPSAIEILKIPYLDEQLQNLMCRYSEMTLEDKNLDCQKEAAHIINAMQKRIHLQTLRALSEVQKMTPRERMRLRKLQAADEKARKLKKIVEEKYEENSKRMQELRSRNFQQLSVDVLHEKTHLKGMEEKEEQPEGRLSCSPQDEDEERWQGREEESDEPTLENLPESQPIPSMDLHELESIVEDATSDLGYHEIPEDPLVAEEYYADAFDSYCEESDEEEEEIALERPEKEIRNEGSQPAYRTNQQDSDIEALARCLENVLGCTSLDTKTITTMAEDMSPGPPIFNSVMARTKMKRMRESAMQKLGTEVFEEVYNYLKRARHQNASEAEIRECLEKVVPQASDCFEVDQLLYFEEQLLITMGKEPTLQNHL

Death-associated protein kinase 2 (Homo sapiens), sequence (Q9UIK4 whole entry, looked up, canonical isoform): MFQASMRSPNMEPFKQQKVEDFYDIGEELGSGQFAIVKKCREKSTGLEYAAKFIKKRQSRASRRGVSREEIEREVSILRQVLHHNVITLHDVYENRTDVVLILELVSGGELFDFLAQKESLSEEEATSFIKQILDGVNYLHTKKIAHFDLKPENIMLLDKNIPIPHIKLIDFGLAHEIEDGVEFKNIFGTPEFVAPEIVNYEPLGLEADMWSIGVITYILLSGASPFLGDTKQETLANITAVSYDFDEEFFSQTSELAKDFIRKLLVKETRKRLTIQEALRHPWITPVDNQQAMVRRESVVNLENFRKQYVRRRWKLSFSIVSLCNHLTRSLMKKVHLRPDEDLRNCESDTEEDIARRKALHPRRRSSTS
Casein kinase I isoform delta, sequence (P48730 whole entry, looked up, canonical isoform): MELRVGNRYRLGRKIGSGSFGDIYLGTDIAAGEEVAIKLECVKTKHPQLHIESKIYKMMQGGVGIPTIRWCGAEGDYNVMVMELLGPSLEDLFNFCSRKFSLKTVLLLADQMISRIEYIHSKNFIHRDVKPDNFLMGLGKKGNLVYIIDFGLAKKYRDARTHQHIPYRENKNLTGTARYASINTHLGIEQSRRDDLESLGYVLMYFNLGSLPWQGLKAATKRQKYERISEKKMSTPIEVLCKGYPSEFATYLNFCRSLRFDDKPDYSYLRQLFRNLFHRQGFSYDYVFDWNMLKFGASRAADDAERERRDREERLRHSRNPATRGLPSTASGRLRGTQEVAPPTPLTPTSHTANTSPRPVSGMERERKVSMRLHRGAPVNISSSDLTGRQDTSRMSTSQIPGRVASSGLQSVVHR

CN(C)CCOc1ccc(-c2nc(-c3ccncc3)c(-c3ccc4c(c3)CC/C4=N\O)[nH]2)cc1
% of control [1]: 100%

O=C(NOC[C@H](O)CO)c1ccc(F)c(F)c1Nc1ccc(I)cc1F
% of control [2]: 100%

Cc1cc([C@@H](C)Nc2ccccc2C(=O)O)c2nc(N3CCOCC3)cc(=O)n2c1 [AZD-6482]
% of control [3]: 96%

Cn1cc(-n2cnc3c(NCc4nc5cc(Cl)c(Cl)cc5[nH]4)nc(N4CCOCC4)nc32)cn1
% of control [4]: 1.58%

COCC(=O)NC/C=C/c1ccc2ncnc(Nc3ccc(Oc4ccc(C)nc4)c(C)c3)c2c1 [CP-724714]
% of control [5]: 53%

C=CC(=O)Nc1cc(-n2c(=O)ccc3cnc4ccc(-c5ccc(NS(C)(=O)=O)cc5)cc4c32)ccc1C
% of control ([6]; at 1 µM): 100%
% of control ([6]; at 10 µM): 100%

N#Cc1cccc(-c2c[nH]c3ncnc(N4CCOCC4)c23)c1
% of control [7]: 100%
